{"source": "patent US8273767B2", "about": "“Bicyclic-substituted amines as histamine-3 receptor ligands” (Abbott Laboratories, priority 2002, dated 2012)", "note": "Counter-ions that a name gives are not always drawn.", "data": [{"values": [{"molecule": "CC(=O)c1ccc(-c2ccc3nc(CCN4CCC[C@H]4C)ccc3c2)cc1", "note": "(as salt: tartrate) [Example 116, 1-(4-{2-[2-(2(R)-Methyl-pyrrolidin-1-yl)-ethyl]-quinolin-6-yl}-phenyl)-ethanone]", "melting point": "152 to 154 °C"}, {"molecule": "C[C@@H]1CCCN1CCc1ccc2cc(-c3ccc(Cl)nc3)ccc2n1", "note": "(as salt: tartrate) [Example 110, 6-(6-Chloro-pyridin-3-yl)-2-[2-(2(R)-methyl-pyrrolidin-1-yl)-ethyl]-quinoline]", "melting point": "167 to 168 °C"}, {"molecule": "C[C@@H]1CCCN1CCc1ccc2cc(-c3ccc(Cl)nc3Cl)ccc2n1", "note": "(as salt: hydrochloride) [Example 111, 6-(2,6-Dichloro-pyridin-3-yl)-2-[2-(2(R)-methyl-pyrrolidin-1-yl)-ethyl]-quinoline]", "melting point": "105 to 107 °C"}, {"molecule": "C[C@@H]1CCCN1CCc1ccc2cc(-c3ccc(F)nc3)ccc2n1", "note": "(as salt: hydrochloride) [Example 123, 6-(6-Fluoro-pyridin-3-yl)-2-[2-(2(R)-methyl-pyrrolidin-1-yl)-ethyl]-quinoline]", "melting point": "162 to 163 °C"}, {"molecule": "C[C@@H]1CCCN1CCc1ccc2cc(-c3cncnc3)ccc2n1", "note": "(as salt: hydrochloride) [Example 113, 2-[2-(2(R)-Methyl-pyrrolidin-1-yl)-ethyl]-6-pyrimidin-5-yl-quinoline]", "melting point": "160 to 162 °C"}, {"molecule": "C[C@@H]1CCCN1CCc1ccc2cc(C#N)ccc2c1", "note": "(as salt: hydrochloride) [Example 5, 6-{2-[(2R)-2-methyl-1-pyrrolidinyl]ethyl}-2-naphthonitrile]", "melting point": "187.4 to 188.6 °C"}, {"molecule": "Cc1ccc(-c2ccc3nc(CCN4CCC[C@H]4C)ccc3c2)c(C)n1", "note": "(as salt: hydrochloride) [Example 118, 6-(2,6-Dimethyl-pyridin-3-yl)-2-[2-(2(R)-methyl-pyrrolidin-1-yl)-ethyl]-quinoline]", "melting point": "176 to 177 °C"}, {"molecule": "C[C@@H]1CCCN1CCc1ccc2cc(-c3ccc(C#N)cc3)ccc2c1", "note": "(as salt: tartrate) [Example 1, 4-(6-{2-[(2R)-2-methyl-1-pyrrolidinyl]ethyl}-2-naphthyl)benzonitrile]", "melting point": "157.4 to 158.1 °C"}, {"molecule": "COc1ccc(-c2ccc3nc(CCN4CCC[C@H]4C)ccc3c2)cn1", "note": "(as salt: tartrate) [Example 108, 6-(6-Methoxy-pyridin-3-yl)-2-[2(R)-(2-methyl-pyrrolidin-1-yl)-ethyl]-quinoline]", "melting point": "132 to 134 °C"}, {"molecule": "C[C@@H]1CCCN1CCc1ccc2cc(-c3cccnc3)ccc2n1", "note": "(as salt: hydrochloride) [Example 51, 2-{2-[(2R)-2-methyl-1-pyrrolidinyl]ethyl}-6-(3-pyridinyl)quinoline]", "melting point": "205 to 207 °C"}, {"molecule": "C[C@@H]1CCCN1CCc1ccc2cc(Br)ccc2c1", "note": "(as salt: HCl) [Example 2, (2R)-1-[2-(6-bromo-2-naphthyl)ethyl]-2-methylpyrrolidine]", "melting point": "247.3 to 250.7 °C"}, {"molecule": "C[C@@H]1CCCN1CCc1ccc2cc(-c3cccc(C#N)c3)ccc2c1", "note": "[Example 7, 3-(6-{2-[(2R)-2-methyl-1-pyrrolidinyl]ethyl}-2-naphthyl)benzonitrile]", "melting point": "228.5 to 231.6 °C"}, {"molecule": "C[C@@H]1CCCN1CCc1ccc2cc(-c3ccc(Cl)cc3)ccc2n1", "note": "(as salt: hydrochloride) [Example 117, 6-(4-Chloro-phenyl)-2-[2-(2(R)-methyl-pyrrolidin-1-yl)-ethyl]-quinoline]", "melting point": "154 to 155 °C"}, {"molecule": "C[C@@H]1CCCN1CCc1ccc2cc(-c3ccncc3)ccc2n1", "note": "(as salt: hydrochloride) [Example 107, 2-[2-(2R-Methyl-pyrrolidin-1-yl)-ethyl]-6-pyridin-4-yl-quinoline]", "melting point": "145 to 147 °C"}, {"molecule": "C[C@@H]1CCCN1CCc1ccc2cc(-c3cc(F)cc(F)c3)ccc2n1", "note": "(as salt: hydrochloride) [Example 49, 6-(3,5-difluorophenyl)-2-{2-[(2R)-2-methyl-1-pyrrolidinyl]ethyl}quinoline]", "melting point": "164 to 165 °C"}, {"molecule": "C[C@@H]1CCCN1Cc1ccc2cc(-c3ccc(C#N)cc3)ccc2c1", "note": "(as salt: hydrochloride) [Example 6, 4-(6-{[(2R)-2-methyl-1-pyrrolidinyl]methyl}-2-naphthyl)benzonitrile]", "melting point": "212.6 to 213.6 °C"}, {"molecule": "C[C@@H]1CCCN1CCc1ccc2cc(-c3ccc(F)nc3F)ccc2n1", "note": "(as salt: tartrate) [Example 109, 6-(2,6-Difluoro-pyridin-3-yl)-2-[2-(2R-methyl-pyrrolidin-1-yl)-ethyl]-quinoline]", "melting point": "142 to 143 °C"}, {"molecule": "CC(=O)c1cccc(-c2ccc3nc(CCN4CCC[C@H]4C)ccc3c2)c1", "note": "(as salt: hydrochloride) [Example 45, 1-[3-(2-{2-[(2R)-2-methyl-1-pyrrolidinyl]ethyl}-6-quinolinyl)phenyl]ethanone]", "melting point": "174 to 175 °C"}, {"molecule": "C[C@@H]1CCCN1CCc1ccc2cc(-c3ccc(C(F)(F)F)cc3)ccc2n1", "note": "(as salt: hydrochloride) [Example 47, 2-{2-[(2R)-2-methyl-1-pyrrolidinyl]ethyl}-6-[4-(trifluoromethyl)phenyl]quinoline]", "melting point": "143 to 145 °C (dec.)"}, {"molecule": "C[C@@H]1CCCN1CCc1ccc2cc(-c3cccc(C#N)c3)ccc2n1", "note": "(as salt: tartrate) [Example 44, 3-(2-{2-[(2R)-2-methyl-1-pyrrolidinyl]ethyl}-6-quinolinyl)benzonitrile]", "melting point": "172 °C"}, {"molecule": "C[C@@H]1CCCN1CCc1ccc2cc(-c3ccc(N(C)C)cc3)ccc2n1", "note": "(as salt: tartrate) [Example 115, Dimethyl-(4-{2-[2-(2(R)-methyl-pyrrolidin-1-yl)-ethyl]-quinolin-6-yl}-phenyl)-amine]", "melting point": "155 to 156 °C"}, {"molecule": "C[C@@H]1CCCN1CCc1ccc2cc(C(=O)c3cccc(F)c3)ccc2n1", "note": "(as salt: hydrochloride) [Example 50, (3-fluorophenyl)(2-{2-[(2R)-2-methyl-1-pyrrolidinyl]ethyl}-6-quinolinyl)methanone]", "melting point": "162 to 164 °C (dec.)"}, {"molecule": "C[C@@H]1CCCN1CCc1ccc2cc(-c3ccc(F)cc3)ccc2n1", "note": "(as salt: hydrochloride) [Example 43, 6-(4-fluorophenyl)-2-{2-[(2R)-2-methyl-1-pyrrolidinyl]ethyl}quinoline]", "melting point": "145 °C"}, {"molecule": "C[C@@H]1CCCN1CCc1ccc2cc(-c3cncc(C#N)c3)ccc2n1", "note": "(as salt: tartrate) [Example 124, 5-{2-[2-(2(R)-Methyl-pyrrolidin-1-yl)-ethyl]-quinolin-6-yl}-nicotinonitrile]", "melting point": "100 to 102 °C"}, {"molecule": "COC(=O)c1ccc(-c2ccc3nc(CCN4CCC[C@H]4C)ccc3c2)cc1", "note": "(as salt: hydrochloride) [Example 121, 4-{2-[2-(2(R)-Methyl-pyrrolidin-1-yl)-ethyl]-quinolin-6-yl}-benzoic acid methyl ester]", "melting point": "172 to 174 °C"}, {"molecule": "COc1ccc(-c2ccc3nc(CCN4CCC[C@H]4C)ccc3c2)cc1", "note": "(as salt: hydrochloride) [Example 46, 6-(4-methoxyphenyl)-2-{2-[(2R)-2-methyl-1-pyrrolidinyl]ethyl}quinoline]", "melting point": "165 °C (dec.)"}, {"molecule": "C[C@@H]1CCCN1CCc1ccc2cc(-c3ccc(C#N)cc3)ccc2n1", "note": "(as salt: tartrate) [Example 42, 4-(2-{2-[(2R)-2-methyl-1-pyrrolidinyl]ethyl}-6-quinolinyl)benzonitrile]", "melting point": "164 °C"}, {"molecule": "Cc1noc(C)c1-c1ccc2nc(CCN3CCC[C@H]3C)ccc2c1", "note": "(as salt: hydrochloride) [Example 120, 6-(3,5-Dimethyl-isoxazol-4-yl)-2-[2-(2(R)-methyl-pyrrolidin-1-yl)-ethyl]-quinoline]", "melting point": "174 to 175 °C"}, {"molecule": "CSc1ccc(-c2ccc3nc(CCN4CCC[C@H]4C)ccc3c2)cc1", "note": "(as salt: hydrochloride) [Example 122, 2-[2-(2(R)-Methyl-pyrrolidin-1-yl)-ethyl]-6-(4-methylsulfanyl-phenyl)-quinoline]", "melting point": "158 to 159 °C"}]}]}
